This is an account of results in patent US4599347A, “Tetrahydro-naphth (2.3-d) imidazole derivatives” (Hoffmann-La Roche Inc., priority 1980, dated 1986).

A short description of series [1]: Preliminary toxicity in the mouse. To be noted: in vivo, po, read-out: Prel. tox mouse. On the procedure:
Representative compounds of formula I of the invention were tested for their gastric acid secretion-inhibiting activity, for their anti-ulcer activity, as well as for their toxicity.
In Table I, which follows, the names of the compounds tested as well as the results of the testing for their gastric secretion-inhibiting activity, for their anti-ulcer activity and for their toxicity are given.

For a further series, the system named is gastric acid secretion. Nature of the series: Shay test (pylorus-ligated rats, gastric acid secretion-inhibiting activity). Conditions: female rats, i.d.; for ED50: Rattus norvegicus, 4 h. Type of series: in vivo, rat. On the procedure: The two experimental procedures described hereinafter were used to determine the gastric acid secretion-inhibiting activity: Shay test The pylorus of female rats, which had received no food for 24 hours but which had received water ad libitum, is ligatured under slight ether narcosis in accordance with Shay et al. [Gastroenterology 5, 43 (1945)]. Immediately thereafter the substances to be tested are administered intraduodenally to the animals. Four (4) hours later the animals are killed. The volume and the acidity of their gastric juice are determined and the values obtained are compared with those of control animals which were treated similarly, but had received no test substance. The ED 50 is defined as the dosage of test substance which brings about a 50% reduction of volume or acidity of the gastric juice in the treated animals compared with the control animals.

The test system of series [2] is acid secretion caused by 4-methylhistamine dihydrochloride. Nature of the series: Heidenhain test (gastric pouch dogs, inhibition of 4-methylhistamine-stimulated acid secretion). The series is classed as in vivo, dog. To be noted: 50% inhibition of acid secretion caused by 4-methylhistamine dihydrochloride infusion; for ED50: Canis lupus familiaris, po, read-out: Heidenhain test ED 50. On the procedure: The two experimental procedures described hereinafter were used to determine the gastric acid secretion-inhibiting activity: Heidenhain test A part of the stomach fundus of female and male dogs is separated from the remaining stomach in the form of a pouch according to the […] technique [described by Rudick et al. in J. Surgical Research 7, 383-398 (1967)]. In the pouch there is fitted a steel cannula which is conducted externally through the abdominal wall. The secretion experiments are commenced after about 6 weeks. Before each experiment the animals receive no food for 18 hours, but receive water ad libitum. They are conscious during the experiment. A saphenous vein is cannulated for an infusion of 4-methylhistamine dihydrochloride, a selective stimulator of the histamine H2 -receptors. An appropriate infusion rate of the 4-methylhistamine dihydrochloride ([…], intravenously) is ascertained for each animal in preliminary experiments. During the entire main experiment the gastric secretion is stimulated by the infusion of 4-methylhistamine dihydrochloride, and 15 minute fractions of the gastric juice are collected continuously. As soon as volume and pH of these fractions show constant values, the test substances are administered orally. The ED 50 is defined as that dosage of test substance which brings about a 50% inhibition of the acid secretion caused by 4-methylhistamine dihydrochloride in the treated animals compared with the controls.

For the next series, the system named is ulcers of the duodenum. Nature of the series: Anti-ulcer activity (ulcers of the duodenum induced by 4-methylhistamine and carbachol in guinea pigs). Type of series: in vivo, guinea pig. Conditions: i.g.; for ED50: Cavia porcellus, po, read-out: Anti-ulcer ED 50. On the procedure: Before the beginning of the testing a group of 10 guinea pigs, body weight 280 to 320 g, of the same sex receives no food for 24 hours, but receives water ad libitum. Various doses of the test substance or of the appropriate vehicle (control) are administered intragastrically. The test is repeated on different days with other groups of guinea pigs in order to avoid the influence of daily variations.

Where [3] appears, read: 50% reduction of acidity of gastric juice, read-out: Shay test ED 50 Acid.
The mark [4] stands for this setting: 50% reduction of volume of gastric juice, read-out: Shay test ED 50 Vol.

Where a name gives a salt, the structure may show the parent alone. Read-outs that look alike come from different tables or passages of the source.

As to `Cc1ccc(CSc2nc3cc4c(cc3[nH]2)CCC4)nc1.Cl.Cl` [1,5,6,7-tetrahydro-2-[[(5-methyl-2-pyridyl)methyl]thio]indeno(5,6-d)imidazole dihydrochloride], the LD50 in series [1] was found to be 1250 mg/kg. For the same molecule, the ED50 in the series with gastric acid secretion (setting [3]) turned out to be 28 mg/kg; in the series on gastric acid secretion (setting [4]), 50 mg/kg; in series [2] it was 3.6 mg/kg; in the series on ulcers of the duodenum, 34 mg/kg.

Take `CC1(C)C(=O)C(C)(C)c2cc3[nH]c(SCc4ccccn4)nc3cc21` [5,7-dihydro-5,5,7,7-tetramethyl-2-[(2-pyridylmethyl)thio]indeno(5,6-d)imidazol-6(1H)-one]: the LD50 in series [1] came out at 2500 mg/kg. In addition, the ED50 with gastric acid secretion (setting [3]) amounted to 9 mg/kg; in the series on gastric acid secretion (setting [4]), 20 mg/kg; in series [2], 5.5 mg/kg; with ulcers of the duodenum it was 32 mg/kg.

With `c1ccc(CSc2nc3cc4c(cc3[nH]2)OCO4)nc1` [6-[(2-Pyridylmethyl)thio]-5H-1,3-dioxolo(4,5-f)-benzimidazole.2HCl], the LD50 in series [1] stood at 1250 mg/kg. In addition, the ED50 amounted to 29 mg/kg with gastric acid secretion (setting [3]), 35 mg/kg in the series on gastric acid secretion (setting [4]), 2.6 mg/kg in series [2] and 17 mg/kg in the series with ulcers of the duodenum.

Regarding `Cc1ccc(CSc2nc3cc4c(cc3[nH]2)OCO4)nc1` [6-[[(5-Methyl-2-pyridyl)-methyl]thio]-5H--1,3-dioxolo-(4,5-f)benzimidazole dihydrochloride], in the series with gastric acid secretion (4 hours, 50% reduction of acidity of gastric juice, dihydrochloride, 240 min), the “Shay test ED 50 Acid” value is recorded as 65 mg/kg. For the same molecule, in the series with gastric acid secretion (4 hours, 50% reduction of volume of gastric juice, dihydrochloride, 240 min), the “Shay test ED 50 Vol” value is recorded as 75 mg/kg. Further, the “Heidenhain test ED 50” value in series [2] (p.o., dihydrochloride) turned out to be 2.1 mg/kg. The “Anti-ulcer ED 50” value in the series with ulcers of the duodenum (dihydrochloride) was 25 mg/kg.

Turning to `Cc1ccc(C[S+]([O-])c2nc3cc4c(cc3[nH]2)OCO4)nc1` (stereo not shown) [6-[[(5-methyl-2-pyridyl)methyl]sulfinyl]-5H-1,3-dioxolo(4,5-f)-benzimidazole], in series [1], the LD50 worked out at 5000 mg/kg. Besides, the ED50 in the series on gastric acid secretion (setting [3]) is 28 mg/kg; in the series with gastric acid secretion (setting [4]), 65 mg/kg; in series [2] it was 2.3 mg/kg; with ulcers of the duodenum it was 14 mg/kg.

Regarding `Cc1ccc(CSc2nc3cc4c(cc3[nH]2)OCO4)nc1` [6-[[(5-methyl-2-pyridyl)methyl]thio]-5H-1,3-dioxolo(4,5-f)benzimidazole], the ED50 came out at 100 mg/kg in the series on gastric acid secretion (setting [3]), 100 mg/kg with gastric acid secretion (setting [4]), 1.8 mg/kg in series [2] and 18 mg/kg with ulcers of the duodenum.
